Assays:
[1] = system: A2780; assay: Antiproliferative activity against human A2780 cells; type: functional, cell-based
[2] = biological target: Peptidyl-prolyl cis-trans isomerase NIMA-interacting 1 (Homo sapiens, UniProt Q13526); assay: Inhibition of Pin1 PPIase activity
Sequence of Peptidyl-prolyl cis-trans isomerase NIMA-interacting 1 (Q13526 whole entry): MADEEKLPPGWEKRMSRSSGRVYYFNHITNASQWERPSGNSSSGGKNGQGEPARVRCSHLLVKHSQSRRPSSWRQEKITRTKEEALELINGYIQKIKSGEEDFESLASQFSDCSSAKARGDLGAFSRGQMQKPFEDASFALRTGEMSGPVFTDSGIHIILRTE

O=C(N[C@H](/C=C1\CCC[C@H]1C(=O)NCCc1c[nH]c2ccccc12)COP(=O)(O)O)OCC1c2ccccc2-c2ccccc21
IC50 [1]: 46.2 µM | IC50 [2]: 28.3 µM

CC(C)(C)C(=O)OCOP(=O)(OCOC(=O)C(C)(C)C)OC[C@@H](/C=C1\CCC[C@H]1C(=O)NCCc1c[nH]c2ccccc12)NC(=O)OCC1c2ccccc2-c2ccccc21
IC50 [1]: 26.9 µM

Reference: ChEMBL document CHEMBL1140561, “A phosphorylated prodrug for the inhibition of Pin1” (Bioorg Med Chem Lett, 2007)
